Measurements published in patent US9757350B2, “Small molecule inhibitors of replication protein A that also act synergistically with cisplatin” (Indiana University Research and Technology Corp., priority 2010, dated 2017).

What was measured:
[1] = target: T1, SpPot1(DBD) (Schizosaccharomyces pombe, UniProt O13988); test: SpPot1(DBD) ssDNA binding; settings: protein pre-incubated with SMI
T1 construct: the Schizosaccharomyces pombe Pot1(DBD) domain (11) were studied
T1 sequence (O13988 1-389 limits assumed): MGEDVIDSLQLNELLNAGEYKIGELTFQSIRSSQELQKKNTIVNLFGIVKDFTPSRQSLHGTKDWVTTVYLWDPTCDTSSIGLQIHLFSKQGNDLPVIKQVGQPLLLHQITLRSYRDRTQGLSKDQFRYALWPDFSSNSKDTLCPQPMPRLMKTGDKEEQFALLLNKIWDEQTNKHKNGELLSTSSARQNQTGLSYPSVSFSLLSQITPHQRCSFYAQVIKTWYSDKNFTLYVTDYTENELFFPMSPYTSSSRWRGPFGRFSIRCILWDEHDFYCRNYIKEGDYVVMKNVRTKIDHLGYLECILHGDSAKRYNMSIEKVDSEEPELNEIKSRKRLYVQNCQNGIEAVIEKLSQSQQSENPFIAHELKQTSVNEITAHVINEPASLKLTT
Experimental: In order to study the specificity of the CheSS19, and MCI13E/F compounds, their effects on two ssDNA binding proteins which use OB-folds for recognition and binding of ssDNA, E. coli SSB (6) and the Schizosaccharomyces pombe Pot1(DBD) domain (11) were studied. The EcSSB protein is a non-sequence-specific ssDNA binding protein, whereas the SpPot1(DBD) protein is a telomere-specific, ssDNA binding protein. In these experiments, protein was pre-incubated with the SMIs, as was done for the RPA experiments, prior to addition of radiolabeled ssDNA to the reactions.

[2] = tested on: A549 cells; test: Crystal violet cell viability assay, A549; format: cell-based; settings: 48 hours
Experimental: Referring now to FIG. 11A. Gel showing effect of MCI13E on DNA-RPA binding. […] Cytotoxicity was analyzed via crystal violet analysis as described in “methods” 48 hours following MCI13E treatment. Data represent the average and standard deviation of four replicate experiments with each replicate containing triplicate determinations and the circles represent data from H460 cells and squares A549 cells. Referring now to FIG. 11C. Graph of MCI13E induced death via apoptosis in NSCLC cell lines. Cell were treated with the indicated concentrations of MCI13E for 48 hours and analyzed for the induction of apoptosis via Annexin V/PI staining Referring now to FIG. 11D. Graph of cell survival as a function of [MCI1EC]. Percent survival was calculated for each cell line using untreated cells as a control. Data presented are the average and standard deviation from four replicate experiments. […]
Cell Viability Assays—A crystal violet cell viability assay was performed to determine cytotoxicity of SMI. […] Stained cells were resuspended in 500 μl DMSO containing 1% SDS and absorbance was measured at 590 nm in a SpectraMax M5 plate reader (Molecular Devices, Sunnyvale, Calif.) and analyzed using SoftMax Pro 5.2. Percent viability is taken as an absorbance percentage against control untreated cells. […]

[3] = tested on: A549 cells; test: Cell cycle analysis by PI staining, A549; format: cell-based; settings: A549, increasing doses
Experimental: Referring now to FIG. 12A and FIG. 12B. Cell Cycle Analysis of Lung Cancer Cell Lines Following Treatment with MCI13E. A549. Referring now to FIG. 12C, and FIG. 12D. H460 were treated as indicated and analyzed for the cell cycle distribution using PI staining and flow cytometry. Quantification of data following 6 hours and 12 hour treatment with 10 and 20 μM MCI13E was performed for both A549 (FIG. 12E) and H460 (FIG. 12F) Data presented represent the averages of three replicate experiments.
Cell cycle analysis was also performed on the three lung cancer cell lines using PI staining to identify the potential arrest resulting from treatment with SMIs. Briefly, cells were plated in 6-well dishes (2×10^5 cells total) and treated for 6 or 12 hours with increasing concentration of inhibitor. Adherent and non-adherent cells were collected, washed twice with PBS containing 2% bovine serum albumin (BSA), resuspended in 70% cold EtOH and incubated overnight at −20° C. Cells were again collected and stained with PI (1 μg/mL) and RNaseA (25 μg/mL) for 30 min. at 37° C. followed by 1.5 hours at 4° C. in the dark. Flow cytometry was performed as above and data were analyzed on a histogram with events plotted against the FL2-A parameter. Cell cycle distribution was analyzed using the ModFit software and data presented represents three independent trials.

[4] = tested on: A549 cells; test: Combination index study with cisplatin (Chou-Talalay), crystal violet; format: cell-based; settings: for Interaction with cisplatin, sequential treatment: A549, cisplatin 24 h, then SMI 24 h
Experimental: Synergy with cisplatin—Analyses thus far indicate that inhibition of RPA is effective in eliciting effects consistent with inhibition of RPAs role in cell cycle progression and DNA replication. To assess if SMI treatment impacts RPAs role in DNA repair, how MCI13E or MCI13F treatment influences cellular sensitivity to cisplatin was assessed. […] Cisplatin-induced DNA damage is primarily repaired via NER and homologous recombination. […] Initially, a concurrent approach, similar to that described for another RPA SMI, TDRL-505 (1) was used. Briefly, A549 cells were treated for 48 hours with MCI13E, cisplatin, or combination treatment, with viability determined via crystal violet staining. […] Next, a sequential treatment protocol was used, first treating cells with cisplatin for 24 hours, then adding the SMI and incubating for an additional 24 hours.
Combination Index—Studies Combination index studies, performed with combination SMI and cisplatin treatment, were used to determine the level of synergy or antagonism between the two compounds. Referring now to FIG. 19A, a schematic illustrating Sequential treatment with cisplatin and MCI13E, and FIG. 19B, a schematic illustrating concurrent treatment with cisplatin and MCI13E. Cells received the same concentration of cisplatin or MCI13E but the time the cells were treated with cisplatin varied whereas treatment time with MCI remained the same between the two treatment methods.
Briefly, A549 cells were plated as described above in 24-well dishes (5×10^4 cells per well) and treated either concurrently or sequentially with single agent cisplatin or MCI treatment or with combination treatments. […] Following 48 hours of total treatment cells were analyzed for viability using the crystal violet assay described above and combination index values were calculated based on the Chou and Talalay method (15) as we have previously described (1,23).

## CC1(C)C2CCC1(C)C(OC(=O)CBr)C2 (racemic) [MCI13E, (+/−)-Isobornyl bromoacetate]
[1]
  Effect on SpPot1(DBD) ssDNA binding: no significant inhibition
[2]
  IC50: ~5 µM
[3]
  Cell cycle distribution: greater proportion of cells in the G1 phase
[4]; A549, 48 hours together
  Interaction with cisplatin, concurrent treatment: antagonistic effect
[4]
  Interaction with cisplatin, sequential treatment: synergizing with cisplatin at higher dosing concentrations

## CC1(C)C2CCC1(C)C(OC(=O)CI)C2 (racemic) [MCI13F, (+/−)-Isobornyl iodoacetate]
[1]
  Effect on SpPot1(DBD) ssDNA binding: no significant inhibition
[2]
  IC50: ~5 µM
[4]
  Interaction with cisplatin, sequential treatment: synergy with cisplatin at all tested concentrations
